Source: patent US11964962B2, “Substituted pyridazinone compound and use thereof” (SHANDONG FIRST MEDICAL UNIVERSITY & SHANDONG ACADEMY OF …, priority 2020, dated 2024)

Tests used:
[1] = target: T1, THRα (Homo sapiens, UniProt P10827); assay: THRα agonist activity, fluorescence ratio 665 nm/615 nm with EE-RxRα and biotin-GRIP; format: biochemical; conditions: incubated overnight at 4° C.
T1 construct: GST
T1 sequence (P10827 1-410 isoform P10827-2): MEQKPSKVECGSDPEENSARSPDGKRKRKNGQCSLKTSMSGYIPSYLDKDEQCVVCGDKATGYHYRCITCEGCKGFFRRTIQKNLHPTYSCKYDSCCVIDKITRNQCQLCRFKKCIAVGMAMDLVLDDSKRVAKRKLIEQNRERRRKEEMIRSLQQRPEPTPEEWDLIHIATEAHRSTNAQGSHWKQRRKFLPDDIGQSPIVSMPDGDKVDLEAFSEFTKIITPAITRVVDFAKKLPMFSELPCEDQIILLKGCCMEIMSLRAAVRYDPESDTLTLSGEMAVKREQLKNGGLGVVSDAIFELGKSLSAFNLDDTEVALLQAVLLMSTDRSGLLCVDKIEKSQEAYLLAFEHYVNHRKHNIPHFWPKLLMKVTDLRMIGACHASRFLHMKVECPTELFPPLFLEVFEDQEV
T1 sequence (P19793 225-462 partner limits assumed): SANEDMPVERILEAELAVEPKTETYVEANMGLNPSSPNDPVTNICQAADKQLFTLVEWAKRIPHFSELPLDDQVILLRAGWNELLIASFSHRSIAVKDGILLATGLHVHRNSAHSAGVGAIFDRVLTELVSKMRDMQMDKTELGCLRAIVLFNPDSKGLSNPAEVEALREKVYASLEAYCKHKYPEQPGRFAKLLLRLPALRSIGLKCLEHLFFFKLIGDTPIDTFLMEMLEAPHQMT
T1 sequence (Q15596 679-703 partner limits assumed): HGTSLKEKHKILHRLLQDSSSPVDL
Experimental: (§1) Test compound was dissolved and serially diluted in dimethyl sulfoxide (DMSO) with a final compound concentration of 60 mM. […] Buffer 1 was employed again to prepare EE-RxRα at the same concentrations as those of THRα and THRβ, respectively. Buffer 1+5% DMSO was employed to prepare biotin-GRIP (THRα: […], THRβ: 100 nM). Buffer 2 (50 mM Tris, pH 7.4, 100 mM NaCl, and 0.2 mg/mL BSA) was employed to prepare a mixed solution of 2×Eu-anti-GST and 2×streptavidin-d2. 5 μL of the THRα (THRβ) solution+5 μL of EE-RxRα+2.5 μL of the DMSO solution of test compound+2.5 μL of biotin-GRIP+5 μL of the mixed solution of 2×Eu-anti-GST and 2×streptavidin-d2 was employed as the reaction system, and incubated overnight at 4° C.

[2] = target: T2, THRβ (Homo sapiens, UniProt P10828); assay: THRβ agonist activity, fluorescence ratio 665 nm/615 nm with EE-RxRα and biotin-GRIP; format: biochemical; conditions: incubated overnight at 4° C.
T2 construct: GST
T2 sequence (P10828 1-461): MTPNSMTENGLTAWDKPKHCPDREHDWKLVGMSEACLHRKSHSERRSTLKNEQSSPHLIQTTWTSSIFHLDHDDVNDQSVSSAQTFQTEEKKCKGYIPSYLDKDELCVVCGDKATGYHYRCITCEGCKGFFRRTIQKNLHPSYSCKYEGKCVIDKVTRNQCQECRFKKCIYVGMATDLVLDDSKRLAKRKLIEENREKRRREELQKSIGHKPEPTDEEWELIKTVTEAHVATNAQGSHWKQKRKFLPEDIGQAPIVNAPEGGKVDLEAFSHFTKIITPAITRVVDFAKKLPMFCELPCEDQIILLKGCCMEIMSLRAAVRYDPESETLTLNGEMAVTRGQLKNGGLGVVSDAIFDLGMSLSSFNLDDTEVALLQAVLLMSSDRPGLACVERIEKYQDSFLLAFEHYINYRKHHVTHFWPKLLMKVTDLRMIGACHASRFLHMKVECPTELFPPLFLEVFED
T2 sequence (P19793 225-462 partner limits assumed): T1 sequence (P19793 225-462 partner limits assumed)
T2 sequence (Q15596 679-703 partner limits assumed): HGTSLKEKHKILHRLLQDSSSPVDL
Experimental: as §1

[3] = system: L929 mouse fibroblasts; assay: Cytotoxicity in normal cell line L929 (CCK-8 proliferation assay); format: cell-based; conditions: 48 h treatment, CCK-8, absorbance 450 nm, read-out: IC50 for proliferation of L929 cell lines
Experimental: Concentration of L929 mouse fibroblasts was adjusted to 4×10^5 cells/mL. The cells were seeded in a 96 well plate with […] per well. Wells not supplied with the cells (blank group) were provided. The cells were cultivated on the plate and were allowed to adhere overnight. Then, cell culture supernatants were collected, and 200 μL of test compound at various concentrations were added to the corresponding cell culture supernatants. Control and compound-treated cell culture supernatants were included in each experiment with triplicate wells for each experimental group, and were cultivated for a further 48 h. Then, the resulting cell culture supernatants were again collected, and fresh medium supplemented with 10% CCK-8 solution was added thereto. Incubation for an additional 3 h was carried out. Thereafter, the absorbance of the medium was measured at 450 nm wavelength, and the inhibitory rate of cell proliferation by test compound was calculated according to the equation below: R (%)=1−(Aexperiment−Ablank)/(Acontrol−Ablank)

[4] = Metabolic stability in human liver microsomes; format: in vitro ADME; conditions: pH 7.4, 37° C.; for half-life: read-out: T ½
Experimental: Microsomal incubations were performed in 0.05 M Tris-KCl buffer (pH 7.4) in the presence of test compound dissolved in DMSO at a series of concentrations, rat liver microsomes (RLMs) (S9 or human liver microsomes (HLMs)), rat liver cytoplasms (RLCs) (human liver cytoplasms (HLCs, 0.5 mg/mL)), 1.3 mM β-nicotinamide adenine dinucleotide phosphate sodium salt (NADP), 3.3 mM D-glucose-6-phosphate disodium salt (G-6-P), 0.4 units/mL glucose-6-phosphate dehydrogenase (G-6-PDH, type XII), and 3.3 mM MgCl2. The volume of the organic solvents was not more than 1% by volume with respect to the reaction system. After a preincubation of the mixture in a rotating mixer at 37° C. and 850 rpm for 3 min, hepatic microsomes were added to initiate incubation reactions, which were conducted at 37° C. for 30 min, 60 min, or 90 min, respectively. After the incubations were complete, the reactions were terminated by addition of an equal volume of ice cold acetonitrile, followed by addition of 20 μL of a 1 mg/mL solution of geniposide (internal standard) in methanol and then by centrifugation at 10,000 rpm for 10 min to precipitate protein. The […] was blown dry with nitrogen at 40° C. and then dissolved in 100 μL of methanol, which was used as mobile phase. 10 μL of the solution was sampled and analyzed by HPLC.

SMILES	EC50 [1]	EC50 [2]	microsomal CLint [4]	half-life [4]	IC50 [3]
CC(C)c1cc(Oc2c(Cl)cc(-n3nc(C#N)c(=O)[nH]c3=O)cc2Cl)n[nH]c1=O [MGL-3196, Resmetirom, reference compound]			2.21 µL/min/mg	< 6.67 h	
N#Cc1nn(-c2ccc(Oc3cc(CC4CCCC4)c(=O)[nH]n3)c(F)c2)c(=O)[nH]c1=O [Compound 7]	10 µM	0.013 µM	0.12 µL/min/mg	18.3 h	> 50 µM
CC(C)c1cc(Oc2ccc(-n3nc(C#N)c(=O)[nH]c3=O)cc2Br)n[nH]c1=O [Compound 27]	2.55 µM	0.0311 µM			> 50 µM
CC(C)c1cc(Oc2ccc(-n3nc(C#N)c(=O)[nH]c3=O)cc2F)n[nH]c1=O [Compound 25]	0.014 µM	2.7 µM			> 50 µM
N#Cc1nn(-c2cc(Cl)c(Oc3cc(CC4CCCC4)c(=O)[nH]n3)cc2Cl)c(=O)[nH]c1=O [Compound 11]	2.14 µM	0.372 µM			> 50 µM
Cc1c(Oc2ccc(-n3nc(C#N)c(=O)[nH]c3=O)cc2F)n[nH]c(=O)c1C [Compound 23]	4.59 µM	0.776 µM			> 50 µM

Continued, in another order:

EC50 [1]	EC50 [2]	microsomal CLint [4]	half-life [4]	SMILES	IC50 [3]
3.29 µM	0.0101 µM	0.452 µL/min/mg	14.5 h	Cc1c(Oc2ccc(-n3nc(C#N)c(=O)[nH]c3=O)cc2Cl)n[nH]c(=O)c1C [Compound 24]	> 50 µM
17.6 µM	1.65 µM			CC(C)c1cc(Oc2c(Cl)cc(-c3c[nH]c(=O)c(O)c3)cc2Cl)n[nH]c1=O [Compound 47, 6-(2,6-dichloro-4-(5-hydroxy-6-oxo-1,6-dihydropyridin-3-yl)phenoxy)-4-isopropylpyridazin-3(2H)-one]	> 50 µM
2.11 µM	0.0311 µM			CC(C)(C)Cc1cc(Oc2c(Cl)cc(-n3nc(C#N)c(=O)[nH]c3=O)cc2Cl)n[nH]c1=O [Compound 18]	> 50 µM
> 60 µM	1.9 µM			N#Cc1nn(-c2ccc(Oc3cc(CC4CCCC4)c(=O)[nH]n3)cc2)c(=O)[nH]c1=O [Compound 13]	> 50 µM
0.126 µM	0.101 µM			CC(C)(C)c1cc(Oc2c(Cl)cc(-n3nc(C#N)c(=O)[nH]c3=O)cc2Cl)n[nH]c1=O [Compound 1, 2-(4-((5-(tert-butyl)-6-oxo-1,6-dihydropyridazin-3-yl)oxy)-3,5-dichlorophenyl)-3,5-dioxo-2,3,4,5-tetrahydro-1,2,4-triazine-6-carbonitrile]	> 50 µM
2.75 µM	0.0949 µM	0.18 µL/min/mg	16.3 h	N#Cc1nn(-c2cc(Cl)c(Oc3cc(CC4CCCC4)c(=O)[nH]n3)c(Cl)c2)c(=O)[nH]c1=O [Compound 6]	> 50 µM
1.4 µM	0.81 µM			CC(C)(C)c1cc(Oc2ccc(-n3nc(C#N)c(=O)[nH]c3=O)cc2Cl)n[nH]c1=O [Compound 3]	> 50 µM
